Values quoted from earlier work, collected in patent US20240408573A1, “ACIDIC GAS ADSORBENT AND ACIDIC GAS ADSORPTION DEVICE” (NITTO DENKO CORPORATION, priority 2021, published 2024).

Tests used:
[1] = safety index in terms of handling
[2] = safety index in terms of handling; remark: listed apart in the source
[3] = safety index in terms of handling; remark: listed apart in the source

## NCCNCCNCCN [TETA, triethylenetetramine]
[1]
  Fire Service Act: Hazardous material
rabbits
  Skin irritation test (rabbit): Strong irritant
[2]
  Mutagenicity test (Ames test): Positive
[3]
  Poisonous and Deleterious Substances Control Act: Deleterious
